Patent US12440478B2, “Process for preparing a potent thiazole compound, pharmaceutical formulation and uses thereof” (AHAMMUNE BIOSCIENCES PRIVATE LIMITED, priority 2018, dated 2025)

Key:
[1] = test system: cells that expressed a mutant form of rhodopsin; settings: mutant rhodopsin of autosomal dominant retinitis pigmentosa; protein misfolding and ER stress; cited from earlier work
[2] = test system: NHEM, A375 melanoma, B16-F10 melanoma and NIH-3T3 fibroblasts; assay: Cytotoxicity as LDH release (Test 5); format: cell-based; settings: 24 hours treatment; FIG. 5
Method: NHEM (normal human […] melanocytes), A375 melanoma, B16-F10 melanoma and NIH-3T3 fibroblasts were seeded in 96 well plates for 24 hours. Cells were then treated with VC (DMSO, 0.1%) or with indicated concentrations of N-[2-[2-(4-chlorophenyl)-4-thiazolyl]ethyl]-butanamide for 24 hours. After incubation period, cytotoxicity was measured as % of total LDH released in the culture medium.

black guinea pigs = assay: Animal model of vitiligo, topical application to ears (Test 6); format: in vivo, guinea pig; settings: 1% w/w topical formulation, 4 weeks, versus placebo treated ear; FIG. 6
Method: Topical formulation (1% w/w N-[2-[2-(4-chlorophenyl)-4-thiazolyl]ethyl]-butanamide) was prepared. Similarly, a placebo formulation was also prepared which was exactly similar to the N-[2-[2-(4-chlorophenyl)-4-thiazolyl]ethyl]-butanamide formulation except the active compound. The animal model of vitiligo was developed in black guinea pigs and the placebo and N-[2-[2-(4-chlorophenyl)-4-thiazolyl]ethyl]-butanamide formulations were applied on to the left and right ears respectively.

obese-diabetic mouse = settings: multiple obese-diabetic mouse models; cited from earlier work
melanocytes = assay: Secreted melanin in cell culture supernatant (Test 3); format: cell-based; settings: 72 h, with tunicamycin; % of control; FIG. 3
Method: Cells were treated as indicated for 72 h. After incubation, cell culture supernatant was used for the estimation of secreted melanin. Secreted melanin was measured at 405 nm against cell culture medium as blank. Melanin levels were normalized to the total cellular proteins and represented as % of control.

B16-F10 cells [3] = assay: Tyrosinase activity with tunicamycin treatment (Test 2); format: cell-based; settings: pre-treated 6 h, tunicamycin 300 ng/ml, 72 h; % of vehicle control; FIG. 2
Method: (§1) B16-F10 cells were seeded in 24-well plates (20000 cells per well) for 24 h. Cells were then treated with indicated concentrations of N-[2-[2-(4-chlorophenyl)-4-thiazolyl]ethyl]-butanamide. After 6 h of treatment with N-[2-[2-(4-chlorophenyl)-4-thiazolyl]ethyl]-butanamide, tunicamycin (300 ng/ml) was added to the indicated wells. After 72 h of treatments, cells were washed with PBS and lysed in phosphate buffer (pH 6.8) containing 1 mM EDTA and 01% Triton X-100. Lysate was cleared by centrifugation (12000×g) for 10 min and clear lysate (20 μl) was used for tyrosinase assay. The final concentrations of tyrosinase assay mixture were as follows: phosphate buffer (50 mM, pH 6.8), L-DOPA (1 mM), MBTH (6 mM), DMF (2%). Tyrosinase activity was measured by measuring the colored complex formed at 492 nm. Tyrosinase activity was normalized to total cellular proteins measured by Bradford's reagent and represented as % of vehicle control.

[4] = test system: ER (endoplasmic reticulum); settings: cited from earlier work
B16-F10 melanocytes = assay: MTT cell viability after tunicamycin-induced ER stress (Test 1); format: cell-based; settings: pre-treated 6 h, then 300 ng/ml tunicamycin, 72 h; FIG. 1
Method: B16-F10 melanocytes were seeded (5000 cells per well) in 96-well plates for 24 h. Cells were then treated in quadruplicate with indicated concentration of N-[2-[2-(4-chlorophenyl)-4-thiazolyl]ethyl]-butanamide for 6 h. All the compounds dilutions were made in DMSO and the concentration of the vehicle (DMSO) was kept constant (0.1%) in each well. Cells were then treated with 300 ng/ml tunicamycin to cause ER stress and after 72 h of treatment, cells were observed under microscope and images were captured. Then MTT assay was performed to measure the cell viability. Briefly, MTT (0.5 mg/ml) was added to each well and further incubated for 1 h. Culture medium was removed and the reduced MTT (formazen) was dissolved in DMSO (100 μl per well) and measured at 570 nm. Cell growth in vehicle control was calculated as 100% and the effect of the compounds were calculated accordingly.

B16-F10 cells [5] = assay: Tyrosinase activity with cocktail of inflammatory cytokines (Test 4); format: cell-based; settings: pre-treated 6 h, TNFα, IL1β, IFNγ 10 ng/ml each, 72 h; FIG. 4
Method: In FIG. 4—Cocktail of inflammatory cytokines—Inflammatory cytokines cause inflammation in the system and are implicated for the vitiligo pathology. The “cocktail of inflammatory cytokines” include tumour necrosis factor-alpha (TNFα), interleukin-1 beta (IL-1B) and interferon gamma (IFNγ) at a final concentration of 10 ng/ml each.
as §1, with “(80000” for “(20000”, “a cocktail of inflammatory cytokines (TNFα, IL1β, IFNγ—10 ng/ml each)” for “tunicamycin (300 ng/ml)”, “to” for “to the”, “led to” for “was measured by measuring”, “conversion of L-DOPA into dopachrome that binds to MBTH and forms a color” for “colored”, “which is read” for “formed”

## CCCC(=O)NCCc1csc(-c2ccc(Cl)cc2)n1 [N-[2-[2-(4-chlorophenyl)-4-thiazolyl]ethyl]-butanamide]
[1]
  prevention of cell death: effective in preventing the death of cells
[2]
  cytotoxicity (% of total LDH released): no cytotoxicity
Black guinea pigs
  ear pigmentation: potency to cause repigmentation
obese-diabetic mouse
  B-cell function: improved
  glucose tolerance: improved
  insulin sensitivity: improved
melanocytes
  melanin secretion (melanin levels): increases melanin levels and reverses the tunicamycin effect
B16-F10 cells [3]
  tyrosinase activity: increases tyrosinase activity and reverses the tunicamycin effect
[4]
  ER protein folding output: increasing ER protein folding output
  chaperone expression: chronically inducing chaperone expression
B16-F10 melanocytes
  cell viability (MTT): protects melanocytes from tunicamycin induced cell death in a dose dependent manner
B16-F10 cells [5]
  tyrosinase activity under inflammation: negates inflammation induced effect in melanocytes
